US20150086504A1, “POLYMERIC MICROEMULSIONS” (Janssen Pharmaceutica NV, priority 2002, published 2015)
Values after ≈ are worked out from the molar mass of the structure shown. Where two headings read alike, the source gives them in different places.

Key:
[1] = Solubility in water of model compounds (UV spectroscopy); conditions: for solubility in water: mixed with water for 24 hours, UV spectroscopy, mean of triplicate; for solubility at 24 h: water, thermodynamic from solid
[2] = Solubility of model compounds in aqueous solutions of polymer D4.1 (mixed directly with polymeric solution; Table 4B); type: physicochemical; conditions: room temperature, duplicate; for solubility at 24 h: thermodynamic from solid
Protocol: The solubility of the other model compounds in aqueous solutions of polymer D4.1 was determined by mixing the model compound directly with the polymeric solution for 24 hours at room temperature. Tested polymer concentrations were 1, 5, 10 and 20% (w/v). The obtained suspension was then filtered through a 0.45 μm PVDF membrane filter. The filtered solution was immediately diluted to allow determination of compound concentration by UV spectroscopy. (A polymer solution of the same concentration as the sample to be analysed was used as blank).

[3] = physchem; conditions: water, thermodynamic from solid
[4] = 24 h
[5] = Pharmacokinetic parameters in plasma (LCMS) after oral administration of risperidone solutions; type: in vivo, Male Wistar rats; conditions: rat plasma, active metabolite, micellar solution D4.3 10% (w/v) compared to reference solution
Protocol: Male Wistar rats (˜200 g) were treated by oral administration of vehicles of 2.5 mg/kg risperidone solubilized in three different vehicles (tartaric acid 0.625% v/v (as the reference), copolymer D4.3 1% (w/v) in water and D4.3 10% (w/v) in water). The animals were sacrificed by decapitation 2 hours after administration.
The above experiment was also performed in function of time for the reference solution and for the D4.3 10% (w/v) aqueous solution. Therefore, animals were sacrificed by decapitation at 10 minutes, 30 minutes, 1 hour, 2 hours, 4 hours, 8 hours, 16 hours and 24 hours after administration of the risperidone formulations. […] During this experiment, the usual pharmacokinetic parameters of the active metabolite following oral administration of the two risperidone solutions were determined by LCMS analysis of the plasma samples. […] This finding confirmed the results of an in vitro release study of risperidone from a micellar solution of the present invention. The in vitro release study was performed by dialysing a micellar solution of the invention containing C^14-radioactive risperidone against water and determining the radioactivity by liquid scintillation counting of samples taken from the water as a function of time.

[6] = D4.1 polymer concentration 1 w/v %
[7] = D4.1 polymer concentration 5 w/v %
[8] = D4.1 polymer concentration 10 w/v %
[9] = D4.1 polymer concentration 20 w/v %
[10] = 1% (w/v) aqueous solution of diblock copolymer D4.1, aqueous with cosolvent or surfactant or cyclodextrin, D4.1 polymer concentration 1 w/v %
[11] = 5% (w/v) aqueous solution of diblock copolymer D4.1, aqueous with cosolvent or surfactant or cyclodextrin, D4.1 polymer concentration 5 w/v %
[12] = 10% (w/v) aqueous solution of diblock copolymer D4.1, aqueous with cosolvent or surfactant or cyclodextrin, D4.1 polymer concentration 10 w/v %
[13] = 20% (w/v) aqueous solution of diblock copolymer D4.1, aqueous with cosolvent or surfactant or cyclodextrin, D4.1 polymer concentration 20 w/v %

| Solubility in aqueous solution of diblock copolymer D4.1 [2, 7] | solubility at 24 h [1] | solubility at 24 h [2, 10] | solubility at 24 h [2, 11] | solubility at 24 h [2, 12] | solubility at 24 h [2, 13] | solubility at 24 h [3] | Structure (SMILES) | further results |
| --- | --- | --- | --- | --- | --- | --- | --- | --- |
| 9830 µg/mL |  |  |  |  |  |  | CS(=O)(=O)O.O=c1c2c([nH]c3ccccc13)[C@@H](c1ccc3c(c1)CCO3)N(c1ccccn1)C2 [3-(2,3-dihydro-5-benzofuranyl)-1,2,3,4-tetrahydro-2-(2-pyridinyl)-9H-pyrrolo[3,4-b]quinolin-9-one, (3R) mono methanesulfonate] | solubility in water [1]: 190 µg/mL; Solubility in aqueous solution of diblock copolymer D4.1 [2, 6]: 4370 µg/mL; Solubility in aqueous solution of diblock copolymer D4.1 [2, 8]: 12380 µg/mL; Solubility in aqueous solution of diblock copolymer D4.1 [2, 9]: 13950 µg/mL |
|  |  |  |  |  |  | 0.1 µg/mL (≈ 0.108 µM) | C[C@@H]1[C@H](O)[C@@H](C)/C=C/C=C/C=C/C=C/C=C/C=C/C=C/[C@H](O[C@@H]2O[C@H](C)[C@@H](O)[C@H](N)[C@@H]2O)C[C@@H]2O[C@](O)(C[C@@H](O)C[C@@H](O)[C@H](O)CC[C@@H](O)C[C@@H](O)CC(=O)O[C@H]1C)C[C@H](O)[C@H]2C(=O)O [Amphotericin B, amphotericin B] |  |
|  |  | 530 µg/mL (≈ 1340 µM) | 2710 µg/mL (≈ 6870 µM) | 5760 µg/mL (≈ 14600 µM) | 13900 µg/mL (≈ 35200 µM) | 15 µg/mL (≈ 38 µM) | Nc1nc(Nc2ccc(S(N)(=O)=O)cc2)nn1C(=O)c1c(F)cccc1F [N3-[4-(aminosulfonyl)phenyl]-1-(2,6-difluorobenzoyl)-1H-1,2,4-triazole-3,5-diamine] |  |
|  | 16 µg/mL (≈ 42.9 µM) | 20 µg/mL (≈ 53.6 µM) | 60 µg/mL (≈ 161 µM) | 100 µg/mL (≈ 268 µM) | 190 µg/mL (≈ 509 µM) |  | CC(=O)NC[C@H]1CN(c2ccc(N3Cc4cn(C)nc4C3)c(F)c2)C(=O)O1 [N-[[(5S)-3-[4-(2,6-dihydro-2-methylpyrrolo[3,4-c]pyrazol-5(4H)-yl)-3-fluorophenyl]-2-oxo-5-oxazolidinyl]methyl]-acetamide] |  |
|  | < 1 µg/mL |  |  |  |  |  | Cc1cc(C)c(Nc2ccnc(Nc3ccc(C#N)cc3)n2)c(C)c1 [TMC 120, 4-[[4-[(2,4,6-trimethylphenyl)amino]-2-pyrimidinyl]amino]benzonitrile] |  |

Second part, the compound before the results:

| Structure (SMILES) | Solubility in aqueous solution of diblock copolymer D4.1 [2, 7] | solubility at 24 h [1] | solubility at 24 h [2, 10] | solubility at 24 h [2, 11] | solubility at 24 h [2, 12] | solubility at 24 h [2, 13] | solubility at 24 h [3] | further results |
| --- | --- | --- | --- | --- | --- | --- | --- | --- |
| COc1cc2c(cc1OC)C1=NO[C@@H](CN3CCN(C/C(C)=C/c4ccc(F)cc4)CC3)[C@@H]1CO2 (relative stereo) [3-[[4-[(2E)-3-(4-fluorophenyl)-2-methyl-2-propenyl]-1-piperazinyl]methyl]-3a,4-dihydro-7,8-dimethoxy-3H-[1]benzopyrano[4,3-c]isoxazole [(3R,3aS)-rel-(+)]] | 1010 µg/mL |  |  |  |  |  |  | solubility in water [1]: 3 µg/mL (≈ 6.23 µM); Solubility in aqueous solution of diblock copolymer D4.1 [2, 6]: 200 µg/mL; Solubility in aqueous solution of diblock copolymer D4.1 [2, 8]: 1880 µg/mL; Solubility in aqueous solution of diblock copolymer D4.1 [2, 9]: 3860 µg/mL |
| O=c1c2c([nH]c3ccccc13)[C@@H](c1ccc3c(c1)CCO3)N(c1ncc(-c3ccccn3)cn1)C2 [3-(2,3-dihydro-5-benzofuranyl)-1,2,3,4-tetrahydro-2-[5-(2-pyridinyl)-2-pyrimidinyl]-9H-pyrrolo[3,4-b]quinolin-9-one, (3R)] | 81 µg/mL |  |  |  |  |  |  | solubility in water [1]: <1 µg/mL; Solubility in aqueous solution of diblock copolymer D4.1 [2, 6]: 18 µg/mL; Solubility in aqueous solution of diblock copolymer D4.1 [2, 8]: 150 µg/mL; Solubility in aqueous solution of diblock copolymer D4.1 [2, 9]: 280 µg/mL |
| Cc1cc(C=CC#N)cc(C)c1Nc1ccnc(Nc2ccc(C#N)cc2)n1 [4-[[4-[[4-(2-cyanoethenyl)-2,6-dimethylphenyl]amino]-2-pyrimidinyl]amino]benzonitrile] |  | 0.02 µg/mL (≈ 0.0546 µM) | 50 µg/mL (≈ 136 µM) | 120 µg/mL (≈ 327 µM) | 230 µg/mL (≈ 628 µM) | 440 µg/mL (≈ 1200 µM) |  |  |
| Cc1cc2c(cc1-c1cc(/C=C3\SC(=O)NC3=O)ccc1OC(F)(F)F)C(C)(C)CCC2(C)C [(Z) 5-[[3-(5,6,7,8-tetrahydro-3,5,5,8,8-pentamethyl-2-naphthalenyl)-4-(trifluoromethoxy)phenyl]methylene]-2,4-thiazolidinedione] |  |  | 34 µg/mL (≈ 69.5 µM) | 130 µg/mL (≈ 266 µM) | 350 µg/mL (≈ 715 µM) | 580 µg/mL (≈ 1180 µM) | < 0.5 µg/mL |  |
| COc1ccc2c(c1)c(CC(=O)O)c(C)n2C(=O)c1ccc(Cl)cc1 [Indomethacin, indomethacin] |  |  |  |  |  |  | 10 µg/mL (≈ 27.9 µM) | solubility in water [4]: 10 µg/mL (≈ 27.9 µM) |
| CC(=O)N1CCN(c2ccc(OCC3COC(Cn4ccnc4)(c4ccc(Cl)cc4Cl)O3)cc2)CC1 (stereo not shown) [Ketoconazole, ketoconazole] |  | 10 µg/mL (≈ 18.8 µM) |  |  |  |  |  |  |
| Cc1nc2n(c(=O)c1CCN1CCC(c3noc4cc(F)ccc34)CC1)CCCC2 [Risperidone, risperidone] |  |  |  |  |  |  | 60 µg/mL (≈ 146 µM) | AUC [5]: slightly higher; Cmax [5]: lower; half-life [5]: longer |
| Cc1cc(C#N)cc(C)c1Oc1nc(Nc2ccc(C#N)cc2)nc(N)c1Br [TMC 125, 4-[[6-amino-5-bromo-2-[(4-cyanophenyl)amino]-4-pyrimidinyl]oxy]-3,5-dimethylbenzonitrile] | 300 µg/mL | < 1 µg/mL | 60 µg/mL (≈ 138 µM) |  | 520 µg/mL (≈ 1190 µM) | 870 µg/mL (≈ 2000 µM) |  |  |
